Data on 37 compounds can be found in patent publication US11396517B1, “Exo-aza spiro inhibitors of menin-MLL interaction” (Janssen Pharmaceutica NV, priority 2017, dated 2022).

The target in one assay is T1, menin (Homo sapiens, UniProt O00255, T541A).
T1 construct: Menin (a.a. 1-610-6×his tag)
T1 sequence (O00255 with tags, fused parts or gaps T541A): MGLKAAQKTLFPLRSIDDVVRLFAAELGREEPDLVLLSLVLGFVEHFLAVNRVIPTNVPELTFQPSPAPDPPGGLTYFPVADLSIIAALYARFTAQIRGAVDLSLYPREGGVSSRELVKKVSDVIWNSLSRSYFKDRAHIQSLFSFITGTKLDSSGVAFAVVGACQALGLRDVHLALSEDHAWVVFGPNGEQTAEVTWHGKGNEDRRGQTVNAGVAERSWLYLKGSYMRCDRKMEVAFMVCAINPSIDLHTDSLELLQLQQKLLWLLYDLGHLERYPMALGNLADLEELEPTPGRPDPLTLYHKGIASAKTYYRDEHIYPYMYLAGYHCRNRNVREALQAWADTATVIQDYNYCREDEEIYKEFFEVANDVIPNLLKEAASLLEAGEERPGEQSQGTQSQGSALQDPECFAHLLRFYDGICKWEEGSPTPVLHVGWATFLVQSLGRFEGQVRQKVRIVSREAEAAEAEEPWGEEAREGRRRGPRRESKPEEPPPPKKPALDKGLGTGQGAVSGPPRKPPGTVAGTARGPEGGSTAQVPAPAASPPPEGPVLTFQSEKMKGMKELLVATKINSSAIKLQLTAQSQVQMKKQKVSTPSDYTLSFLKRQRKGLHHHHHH
Briefly: Menin/MLL homogenous time-resolved fluorescence (HTRF) assay. Type of assay: binding. An outline of the steps:
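Terbium-labeled menin (aa 1-610, His-tagged; […]) preincubated 5 min with compound, then 75 nM FITC-MBM1 peptide for 15 min, ambient, Tris pH 7.5, 0.5% DMSO. HTRF 520/490 ratio; 11-point 3-fold titration; IC50 from % inhibition fit.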

The next assay has as its system MOLM14. Briefly: Proliferation assay B (spheroid assay) MOLM14. Conditions: MOLM14 cells, confluence at day 8, absolute IC50, read-out: (3b) Spheroid assay MOLM14 (IC50(μM)) Assay B. Type of assay: cell-based, human. An outline of the steps:
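Leukemia cells grown as spheroids in ultra-low-attachment round-bottom wells with compound at 0.3% DMSO for 8 d at 37 °C. Confluence imaged at day 8 as spheroid size, normalized between DMSO and 1 μM staurosporine controls; absolute IC50 from sigmoidal fit with bounds fixed at 0 and 100%.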

Where [1] appears, read: location 2, read-out: (2) location 2 Menin HTRF assay (IC50 (nM)).

Where two headings read alike, the source gives them in different places. A value given as a limit tells only on which side of the number the result lay.

The term IC50 denotes the concentration needed to halve the response being measured. `CNc1nc(N2CCC3(CC(Nc4ccc5[nH]c(=O)[nH]c5c4)C3)C2)c2cc(CC(F)(F)F)sc2n1` (single isomer, unassigned) [Compound 394]: the 50% inhibitory concentration (IC50) at menin (setting [1]) was 13.8 nM; in the assay with MOLM14 (Homo sapiens, MOLM-14, 192 h), more than 3.75 µM.
Take `CNc1nc(N2CCC3(CC(Nc4ccc5oc(=O)[nH]c5c4)C3)C2)c2cc(CC(F)(F)F)sc2n1` (single isomer, unassigned) [Compound 397]: the IC50 at menin (setting [1]) is 4.4 nM; with MOLM14 (Homo sapiens, MOLM-14, 192 h) it was more than 3.75 µM.
On to `CNc1nc(N2CCC3(CC(Nc4ccc5oc(=O)[nH]c5c4)C3)C2)c2cc(CC(F)(F)F)sc2n1` (single isomer, unassigned) [Compound 398], for which the results for the IC50 on menin (setting [1]) and in the assay on MOLM14 were 16.2 nM and more than 3.75 µM, respectively.
Regarding `CC1CN(C(=O)c2ccc(NC3CC4(CCN(c5ncnc6sc(CC(F)(F)F)cc56)C4)C3)cc2)CC(C)O1` (single isomer, unassigned) [Compound 405], the half-maximal inhibitory concentration (IC50) is 1100 nM on menin (setting [1]) and more than 3.75 µM in the assay with MOLM14 (Homo sapiens, MOLM-14, 192 h).
Take `CC1CN(C(=O)c2ccc(NC3CC4(CCN(c5ncnc6sc(CC(F)(F)F)cc56)C4)C3)cc2)CC(C)O1` (single isomer, unassigned) [Compound 406]: the IC50 on menin (setting [1]) was 36 nM; in the assay with MOLM14, more than 3.75 µM.
Regarding `COC[C@H]1COCCN1C(=O)c1ccc(NC2CC3(CCN(c4ncnc5sc(CC(F)(F)F)cc45)C3)C2)cc1` (single isomer, unassigned) [Compound 407], the IC50 is 1020 nM at menin (setting [1]) and more than 3.75 µM with MOLM14 (Homo sapiens, MOLM-14, 192 h).
For the compound `COC[C@H]1COCCN1C(=O)c1ccc(NC2CC3(CCN(c4ncnc5sc(CC(F)(F)F)cc45)C3)C2)cc1` (single isomer, unassigned) [Compound 408], the IC50 at menin (setting [1]) is 16.4 nM; in the assay with MOLM14, more than 3.75 µM.
Turning to `O=C(c1ccc(NC2CC3(CCN(c4ncnc5sc(CC(F)(F)F)cc45)C3)C2)cc1)N1CCS(=O)(=O)CC1` (single isomer, unassigned) [Compound 411], the IC50 was 101 nM at menin (setting [1]) and more than 3.75 µM in the assay with MOLM14 (Homo sapiens, MOLM-14, 192 h).
On to `O=C(c1ccc(NC2CC3(CCN(c4ncnc5sc(CC(F)(F)F)cc45)C3)C2)cc1)N1CCS(=O)(=O)CC1` (single isomer, unassigned) [Compound 412], for which the results for the IC50 on menin (setting [1]) and with MOLM14 were 7510 nM and more than 3.75 µM, respectively.
Take `CNC(=O)c1cnc(NC2CC3(CCN(c4ncnc5sc(CC(F)(F)F)cc45)C3)C2)cn1` (single isomer, unassigned) [Compound 418]: the IC50 at menin (setting [1]) was 749 nM; with MOLM14 (Homo sapiens, MOLM-14, 192 h) it was more than 3.75 µM.
With `CNC(=O)c1cnc(NC2CC3(CCN(c4ncnc5sc(CC(F)(F)F)cc45)C3)C2)cn1` (single isomer, unassigned) [Compound 419], the 50% inhibitory concentration (IC50) is 10.8 nM on menin (setting [1]) and 3.04 µM with MOLM14.
With `O=C(c1ccc(NC2CC3(CCN(c4ncnc5sc(CC(F)(F)F)cc45)C3)C2)nn1)N1CCOCC1` (single isomer, unassigned) [Compound 420], the concentration for half-maximal inhibition (IC50) at menin (setting [1]) is 3380 nM; in the assay with MOLM14 (Homo sapiens, MOLM-14, 192 h), more than 3.75 µM.
On to `O=C(c1ccc(NC2CC3(CCN(c4ncnc5sc(CC(F)(F)F)cc45)C3)C2)nn1)N1CCOCC1` (single isomer, unassigned) [Compound 421], for which the half-inhibitory concentration (IC50) on menin (setting [1]) is 208 nM; with MOLM14 it was more than 3.75 µM.
As to `CNC(=O)c1ccc(N[C@@H]2CC[C@@]3(CCN(c4ncnc5sc(CC(F)(F)F)cc45)C3)C2)cc1` (stereo in doubt) [Compound 134], the IC50 was 1.6 nM on menin (setting [1]) and 1.29 µM in the assay on MOLM14 (Homo sapiens, MOLM-14, 192 h).
`CNC(=O)c1ccc(N[C@H]2CC[C@@]3(CCN(c4ncnc5sc(CC(F)(F)F)cc45)C3)C2)cc1` (stereo in doubt) [Compound 135]: the half-inhibitory concentration (IC50) on menin (setting [1]) is 23.9 nM; with MOLM14 (Homo sapiens, MOLM-14, 192 h), more than 3.75 µM.
`CNC(=O)c1ccc(N[C@@H]2CC[C@]3(CCN(c4ncnc5sc(CC(F)(F)F)cc45)C3)C2)cc1` (stereo in doubt) [Compound 136]: the IC50 is 409 nM at menin (setting [1]) and more than 3.75 µM in the assay with MOLM14 (Homo sapiens, MOLM-14, 192 h).
In the case of `CNC(=O)c1ccc(N[C@H]2CC[C@]3(CCN(c4ncnc5sc(CC(F)(F)F)cc45)C3)C2)cc1` (stereo in doubt) [Compound 137], the half-inhibitory concentration (IC50) was 5.7 nM on menin (setting [1]) and more than 3.75 µM in the assay on MOLM14 (Homo sapiens, MOLM-14, 192 h).
Take `FC(F)(F)Cc1cc2c(N3CC[C@@]4(CC[C@@H](Nc5ccc(-c6cc[nH]n6)cc5)C4)C3)ncnc2s1` (stereo in doubt) [Compound 139]: the IC50 was 3.5 nM at menin (setting [1]) and 0.56 µM in the assay on MOLM14 (Homo sapiens, MOLM-14, 192 h).
The corresponding values for `FC(F)(F)Cc1cc2c(N3CC[C@@]4(CC[C@H](Nc5ccc(-c6cc[nH]n6)cc5)C4)C3)ncnc2s1` (stereo in doubt) [Compound 140] are 30.9 nM and 1.82 µM.
As for `FC(F)(F)Cc1cc2c(N3CC[C@]4(CC[C@@H](Nc5ccc(-c6cc[nH]n6)cc5)C4)C3)ncnc2s1` (stereo in doubt) [Compound 141], the IC50 at menin (setting [1]) is 3.9 nM; in the assay with MOLM14 (Homo sapiens, MOLM-14, 192 h) it was 2.3 µM.
The corresponding values for `FC(F)(F)Cc1cc2c(N3CC[C@]4(CC[C@H](Nc5ccc(-c6cc[nH]n6)cc5)C4)C3)ncnc2s1` (stereo in doubt) [Compound 142] are 45.7 nM and 0.6 µM.
Turning to `CNC(=O)c1ccc(NC2CC3(CCN(c4ncnc5sc(CC(F)(F)F)cc45)C3)C2)c(F)c1` (stereo not drawn) [Compound 66], the IC50 at menin (setting [1]) is 26.8 nM; with MOLM14 (Homo sapiens, MOLM-14, 192 h), more than 3.75 µM.
In the case of `CNC(=O)c1ccc(NC2CC3(CCN(c4ncnc5sc(CC(F)(F)F)cc45)C3)C2)cc1OCCN(C)C` (stereo not drawn) [Compound 76], the IC50 was 354 nM at menin (setting [1]) and more than 3.75 µM with MOLM14 (Homo sapiens, MOLM-14, 192 h).
The corresponding values for `O=C(NCCO)c1ccc(NC2CC3(CCN(c4ncnc5sc(CC(F)(F)F)cc45)C3)C2)cc1` (stereo not drawn) [Compound 83] are 58.7 nM and more than 3.75 µM.
For the compound `COCCNC(=O)c1ccc(NC2CC3(CCN(c4ncnc5sc(CC(F)(F)F)cc45)C3)C2)cc1` (stereo not drawn) [Compound 85], the IC50 at menin (setting [1]) turned out to be 0.7 nM; in the assay on MOLM14 (Homo sapiens, MOLM-14, 192 h), 1.13 µM.
For the compound `O=C(NCCN1CCOCC1)c1ccc(NC2CC3(CCN(c4ncnc5sc(CC(F)(F)F)cc45)C3)C2)cc1` (stereo not drawn) [Compound 87], the 50% inhibitory concentration (IC50) is 191 nM on menin (setting [1]) and more than 3.75 µM in the assay on MOLM14 (Homo sapiens, MOLM-14, 192 h).
Regarding `CS(=O)(=O)N[C@H]1CC[C@H](NC2CC3(CCN(c4ncnc5sc(CC(F)(F)F)cc45)C3)C2)CC1` (stereo partly drawn) [Compound 102], the IC50 on menin (location 1, read-out: (2) location 1 Menin HTRF assay (IC50 (nM))) is 342 nM; at menin (setting [1]) it was 362 nM; with MOLM14 (Homo sapiens, MOLM-14, 192 h), more than 3.75 µM.
Take `CCS(=O)(=O)N[C@H]1CC[C@H](CNC2CC3(CCN(c4ncnc5sc(CC(F)(F)F)cc45)C3)C2)CC1` (stereo partly drawn) [Compound 106]: the half-maximal inhibitory concentration (IC50) at menin (setting [1]) was 17.8 nM; in the assay on MOLM14 (Homo sapiens, MOLM-14, 192 h) it was 3.39 µM.
Turning to `O=C1NCCN1Cc1ccc(NC2CC3(CCN(c4ncnc5sc(CC(F)(F)F)cc45)C3)C2)cc1` (stereo not drawn) [Compound 107], the IC50 at menin (setting [1]) is 22.1 nM; in the assay with MOLM14 (Homo sapiens, MOLM-14, 192 h), more than 3.75 µM.
As for `CNC(=O)c1ccc(NC2CC3(CCN(c4ncnc5sc(CC(F)(F)F)cc45)C3)C2)cc1F` (stereo not drawn) [Compound 203], the IC50 at menin (setting [1]) amounted to 2.8 nM; in the assay on MOLM14 (Homo sapiens, MOLM-14, 192 h) it was 2.39 µM.
With `CNC(=O)c1ccc(NC2CC3(CCN(c4ncnc5sc(CC(F)(F)F)cc45)C3)C2)c(C)c1` (stereo not drawn) [Compound 212], the IC50 is 58.1 nM on menin (setting [1]) and more than 3.75 µM with MOLM14.
Turning to `CNC(=O)c1ccc(NC2CC3(CCN(c4ncnc5sc(CC(F)(F)F)cc45)C3)C2)cc1C` (stereo not drawn) [Compound 237], the IC50 at menin (setting [1]) is 489 nM; in the assay on MOLM14 it was more than 3.75 µM.
For the compound `CS(=O)(=O)N[C@H]1CC[C@@H](NC2CC3(CCN(c4ncnc5sc(CC(F)(F)F)cc45)C3)C2)CC1` (stereo partly drawn) [Compound 272], the figures for the IC50 at menin (setting [1]) and in the assay with MOLM14 were 18 nM and 2.56 µM, respectively.
As to `CS(=O)(=O)N1CC(CC(C#N)c2ccc(NC3CC4(CCN(c5ncnc6sc(CC(F)(F)F)cc56)C4)C3)cc2)C1` (stereo not drawn) [Compound 339], the IC50 came out at 5.1 nM at menin (setting [1]) and 2.41 µM in the assay on MOLM14 (Homo sapiens, MOLM-14, 192 h).
For `CS(=O)(=O)N1CCN(CC(O)c2ccc(NC3CC4(CCN(c5ncnc6sc(CC(F)(F)F)cc56)C4)C3)cc2)CC1` (stereo not drawn) [Compound 354] the same measures were 43.7 nM and more than 3.75 µM.
For `CS(=O)(=O)N1CCC(C(N)=O)(c2ccc(NC3CC4(CCN(c5ncnc6sc(CC(F)(F)F)cc56)C4)C3)cc2)CC1` (stereo not drawn) [Compound 376] the same measures were 30.6 nM and more than 3.75 µM.
Regarding `O=C(c1ccc(NC2CC3(C2)CN(c2ncnc4sc(CC(F)(F)F)cc24)C3)cc1)N1CCOCC1` [Compound 423], the IC50 at menin (setting [1]) was 135 nM; with MOLM14 (Homo sapiens, MOLM-14, 192 h), more than 3.75 µM.
